Inconclusive results and toxic doses are left out. How the source made its calls: active means survival T/C of 150% or more; inactive means T/C below 125% in these data.
Tested on: CD2F1 mice, L1210 leukemia ip, survival T/C
Assay: NCI In Vivo Anticancer Drug Screen. Data for tumor model L1210 Leukemia (intraperitoneal) in CD2F1 (CDF1) mice
Settings: endpoint: mean survival time, higher = longer survival
Method in brief: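 Vehicle-treated tumor-bearing mice served as controls (C) for compound-treated mice (T). Reported figure is T divided by C.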

[1] = dose: 100.0 mg/kg/injection, schedule: Q01DX009 (ip), vehicle: saline with Tween-80
[2] = dose: 200.0 mg/kg/injection, schedule: Q01DX009 (ip), vehicle: saline with Tween-80
[3] = dose: 400.0 mg/kg/injection, schedule: Q01DX009 (ip), vehicle: saline with Tween-80
[4] = dose: 100.0 mg/kg/injection, schedule: Q01DX001 (ip), vehicle: saline with Tween-80
[5] = dose: 200.0 mg/kg/injection, schedule: Q01DX001 (ip), vehicle: saline with Tween-80
[6] = dose: 400.0 mg/kg/injection, schedule: Q01DX001 (ip), vehicle: saline with Tween-80
[7] = dose: 100.0 mg/kg/injection, schedule: Q04DX003 (ip), vehicle: saline with Tween-80
[8] = dose: 200.0 mg/kg/injection, schedule: Q04DX003 (ip), vehicle: saline with Tween-80

Measured: T/C

CCCCCCCCCCC(N)P(=O)(O)O (centres undefined)
inactive: dose: 25.0 mg/kg/injection, schedule: Q04DX003 (ip), vehicle: saline with Tween-80 91 % of control | dose: 50.0 mg/kg/injection, schedule: Q04DX003 (ip), vehicle: saline with Tween-80 91 % of control

O=C1c2c(O)ccc(Cl)c2C(=O)c2c(O)ccc(Cl)c21
inactive: [1] 95 % of control | [2] 93 % of control | [3] 97 % of control

CCCCC(CCCC)c1ccccn1
inactive: dose: 6.25 mg/kg/injection, schedule: Q01DX009 (ip), vehicle: saline with Tween-80 91 % of control | dose: 12.5 mg/kg/injection, schedule: Q01DX009 (ip), vehicle: saline with Tween-80 96 % of control | dose: 25.0 mg/kg/injection, schedule: Q01DX009 (ip), vehicle: saline with Tween-80 96 % of control

CC(=O)Nc1c(Cl)c(Cl)c(Cl)c2c1-c1ccc(Cl)cc1C2
inactive: [4] 95 % of control | [1] 98 % of control | [5] 101 % of control | [2] 103 % of control | [6] 100 % of control | [3] 103 % of control

CC([NH-])C([NH-])O.[Cl][Pt+2][Cl] (centres undefined)
inactive: dose: 6.25 mg/kg/injection, schedule: Q04DX003 (ip), vehicle: saline with Tween-80 115 % of control

c1cc2c3c(cccc3c1)N=S=N2
inactive: [7] 89 % of control | [8] 89 % of control | dose: 400.0 mg/kg/injection, schedule: Q04DX003 (ip), vehicle: saline with Tween-80 86 % of control

CCO[Si](C)(CCCOCC1CO1)OCC (centres undefined)
inactive: dose: 50.0 mg/kg/injection, schedule: Q01DX009 (ip), vehicle: Klucel (hydroxypropylcellulose) (HPC) 102 % of control | dose: 100.0 mg/kg/injection, schedule: Q01DX009 (ip), vehicle: Klucel (hydroxypropylcellulose) (HPC) 100 % of control | dose: 200.0 mg/kg/injection, schedule: Q01DX009 (ip), vehicle: Klucel (hydroxypropylcellulose) (HPC) 94 % of control

BrCCCCCCCCCCC1(c2ccccc2)OCCO1
inactive: dose: 100.0 mg/kg/injection, schedule: Q04DX003 (ip), vehicle: Klucel (hydroxypropylcellulose) (HPC) 90 % of control | dose: 200.0 mg/kg/injection, schedule: Q04DX003 (ip), vehicle: Klucel (hydroxypropylcellulose) (HPC) 94 % of control | dose: 400.0 mg/kg/injection, schedule: Q04DX003 (ip), vehicle: Klucel (hydroxypropylcellulose) (HPC) 95 % of control

[Cl][Pt][Cl].c1ccc([PH+](c2ccccc2)c2ccccc2)cc1.c1ccc([PH+](c2ccccc2)c2ccccc2)cc1
inactive: [4] 95 % of control | [5] 92 % of control | [6] 92 % of control

O=C(O)c1cnc2cc(Cl)ccc2n1
inactive: dose: 50.0 mg/kg/injection, schedule: Q01DX009 (ip), vehicle: saline with Tween-80 103 % of control | [1] 103 % of control | [7] 98 % of control | [8] 100 % of control

CC(C)c1nc(-c2ccccc2)c(-c2ccccc2)[nH]1
inactive: [1] 103 % of control | [2] 94 % of control | [3] 100 % of control

O=S(=O)(O)O.[NH-]C1CCCCC1[NH-].[Pt+2] (centres undefined)
inactive: dose: 0.04 mg/kg/injection, schedule: Q01DX009 (ip), vehicle: water 109 % of control | dose: 0.05 mg/kg/injection, schedule: Q04DX003 (ip), vehicle: water 110 % of control | dose: 0.32 mg/kg/injection, schedule: Q01DX001 (ip), vehicle: water 120 % of control | dose: 0.63 mg/kg/injection, schedule: Q01DX001 (ip), vehicle: dextrose 124 % of control | dose: 0.63 mg/kg/injection, schedule: Q04DX003 (oral), vehicle: water 96 % of control | dose: 0.78 mg/kg/injection, schedule: Q04DX003 (ip), vehicle: dextrose 119 % of control | dose: 1.2 mg/kg/injection, schedule: Q01DX009 (oral), vehicle: water 100 % of control | dose: 1.25 mg/kg/injection, schedule: Q01DX001 (ip), vehicle: dextrose 119 % of control | dose: 1.25 mg/kg/injection, schedule: Q01DX001 (oral), vehicle: water 98 % of control | dose: 1.25 mg/kg/injection, schedule: Q04DX003 (oral), vehicle: water 98 % of control | dose: 1.56 mg/kg/injection, schedule: Q04DX003 (ip), vehicle: saline with Tween-80 100 % of control | dose: 2.4 mg/kg/injection, schedule: Q01DX009 (oral), vehicle: water 97 % of control | dose: 2.5 mg/kg/injection, schedule: Q01DX001 (ip), vehicle: dextrose 124 % of control | dose: 3.12 mg/kg/injection, schedule: Q04DX003 (ip), vehicle: saline with Tween-80 110 % of control | dose: 5.0 mg/kg/injection, schedule: Q01DX001 (oral), vehicle: water 100 % of control | dose: 10.0 mg/kg/injection, schedule: Q01DX001 (ip), vehicle: dextrose 109 % of control | dose: 10.0 mg/kg/injection, schedule: Q04DX003 (oral), vehicle: water 98 % of control | dose: 12.5 mg/kg/injection, schedule: Q04DX003 (ip), vehicle: dextrose 110 % of control | dose: 12.5 mg/kg/injection, schedule: Q04DX003 (ip), vehicle: saline 93 % of control | dose: 40.0 mg/kg/injection, schedule: Q01DX001 (oral), vehicle: water 109 % of control
